Results on eleven molecules are retold here after PubChem BioAssay (NCI).

What all share (experiment): growth of human tumour cells (NCI), 48 h
Experiment [1] deals with COLO 205 colon.
The subject of experiment [2] is HOP-92 NSCLC.
Experiment [3] concerns UACC-257 melanoma.
In experiment [4] the test system is PC-3 prostate.
In experiment [5] the test system is NCI-H460 lung.
The subject of experiment [6] is HL-60(TB) leukemia.
Experiment [7] relates to HS 578T breast.
For experiment [8], the system named is OVCAR-8 ovarian.
Experiment [9] concerns SK-MEL-5 melanoma.
In experiment [10] the test system is HCC-2998 colon.

Where “and” joins values, the source holds several entries; their conditions need not be identical. Equal values may be shown once.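 The compound was tested at five concentrations on cells cultured in 96-well plates, with a 48-hour exposure period. Abbreviation: GI50, concentration required for 50% inhibition of growth. TGI is the concentration that stops growth completely.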

In the case of `CCN(CC)CCCC(C)Nc1cnc(C(=O)Nc2ccc(Cl)c3cccnc23)cn1` (stereo not given), the GI50 in experiment [1] is 1.58 µM; in [2], 1.18 µM; in [3], 2.91 µM; in experiment [4], 1.32 µM; in experiment [5] it was 2.64 µM; in [6] it was 1.77 µM. In addition, the GI50 in experiment [7] is 3.06 µM; in experiment [8] it was 3.17 µM; in experiment [9] it was 1.8 µM; in experiment [10] it was 1.5 µM. The TGI is 3.23 µM in experiment [1]; 2.82 µM in experiment [2]; 7.96 µM in experiment [3]; 2.82 µM in [4]; 6.8 µM in experiment [5]; 3.54 µM in experiment [6]. The TGI in [7] amounted to 13 µM; in experiment [8], 10 µM; in experiment [9], 3.31 µM; in experiment [10], 3.08 µM.

As for `Oc1ccc2cc(Br)ccc2c1-c1c(O)ccc2cc(Br)ccc12`, the GI50 in [1] was 1.77 µM; in experiment [2], 3.01 µM; in experiment [3] it was 10.1 µM; in [4] it was 3.24 µM; in [5] it was 3.76 µM; in experiment [6] it was 2.87 µM. The GI50 is 3.7 µM in experiment [7], 3.9 µM in experiment [8], 1.87 µM in experiment [9] and 2.22 µM in experiment [10]. In addition, the TGI in [1] is 3.38 µM; in [2], 7.93 µM; in [3], 22.6 µM; in experiment [4] it was 13 µM; in [5], 15 µM; in [6], 8.6 µM. Also, the TGI amounted to 23.3 µM in [7], 15.4 µM in [8], 3.74 µM in [9] and 4.8 µM in experiment [10].

As to `COc1cc2nc3sc(C(=O)Nc4ccc(C(=O)OC(C)C)cc4)c(C(=O)Nc4ccc(Cl)cc4C)n3c(=O)c2cc1OC`, the GI50 in experiment [1] was 7.02 µM; in experiment [2] it was 10.7 µM; in experiment [3] it was 18.4 µM; in experiment [4], 18.5 µM; in experiment [5], 3.05 µM; in [6] it was 7.59 µM. The GI50 is 1.6 µM in experiment [7], 12.6 µM in experiment [8], 6.08 µM in experiment [9] and 9.5 µM in [10]. The TGI was 51.9 µM in [1]; 30.6 µM in experiment [2]; 93.2 µM in experiment [3]; above 100 µM in experiment [4]; above 100 µM in [5]; 35.2 µM in experiment [6]. In addition, the TGI was 7.7 µM in experiment [7], above 100 µM in experiment [8], above 100 µM in experiment [9] and above 100 µM in experiment [10].

Regarding `Nc1nc(N)c(N=O)c(Nc2ccc(O)cc2)n1`, the TGI in [1] was above 100 µM; in experiment [2], above 100 µM; in experiment [3], above 100 µM; in experiment [4], above 100 µM; in [5], above 100 µM; in experiment [6] it was above 71.3 µM. In addition, the TGI in experiment [7] is 58.8 µM; in [8] it was above 100 µM; in experiment [9], above 100 µM; in [10] it was above 100 µM.

In the case of `COc1cc2c3c(n(CCCCOC(=O)C(F)(F)F)c(=O)c2cc1OC)-c1cc2c(cc1C3=O)OCO2`, the GI50 was above 100 µM in experiment [1]; above 82.9 µM in experiment [2]; above 100 µM in [3]; above 100 µM in [4]; above 100 µM in experiment [6]; above 93.1 µM in experiment [7]. For the same molecule, the GI50 in experiment [8] is above 52.6 µM; in experiment [9] it was above 100 µM; in experiment [10], above 100 µM. Also, the TGI in experiment [1], in experiment [2], in experiment [3], in experiment [4], in experiment [5] and in experiment [6] was above 100 µM each time. Also, the TGI in [7], in [8], in [9] and in experiment [10] was above 100 µM throughout.

With `COC(=O)NC1C(C)OC(OC2C/C=C(/C)C3C=CC4C(OC5CC(OC6CC(O)C(OC7CC(O)C(OC)C(C)O7)C(C)O6)C(O)C(C)O5)C(C)CC(C)C4C3(C)/C(O)=C3\C(=O)OC4(CC(C)C(CO)=CC4/C=C\2C)C3=O)CC1(C)[N+](=O)[O-]` (stereo not given), the GI50 in experiment [1] was 9.29 µM; in experiment [2] it was 9.95 µM; in experiment [3], 8.28 µM; in experiment [5] it was 8.33 µM; in [6], 7.94 µM; in experiment [9], 10.9 µM. For the same molecule, the TGI was 16.3 µM and 13 µM in [1]; 19.7 µM and 32.7 µM in experiment [2]; 16.4 µM and 29.4 µM in [3]; 50 µM in experiment [4]; 18.4 µM and 30.5 µM in experiment [5]; 21.3 µM and 24.2 µM in experiment [6]. Further, the TGI in experiment [7] is 40.4 µM; in experiment [8] it was 20.7 µM and 32.3 µM; in experiment [9], 18.7 µM and 33.2 µM; in experiment [10], 31.6 µM.

Regarding `COc1cc2nc(-c3cnc(N(C)C)nc3)nc(NC3CCN(Cc4ccccc4)CC3)c2cc1OC`, the GI50 was 0.637 µM in [1]; 1.03 µM in experiment [2]; 1.79 µM in [3]; 1.46 µM in experiment [4]; 0.412 µM in [5]; 1.51 µM in experiment [6]. The GI50 was 1.71 µM in experiment [7], 1.68 µM in experiment [8], 1.58 µM in [9] and 1.79 µM in experiment [10]. Moreover, the TGI in experiment [1] came out at 2.09 µM; in [2], 2.46 µM; in [3], 3.66 µM; in experiment [4] it was 3.09 µM; in experiment [5], 1.7 µM; in experiment [6], 3.75 µM. Also, the TGI worked out at 3.99 µM in [7], 3.97 µM in experiment [8], 2.95 µM in experiment [9] and 3.25 µM in [10].

Turning to `COc1cccc(C2c3cc4c(cc3OC(C)(O)C2C)OCO4)c1O` (stereo not given), the TGI in experiment [1] was 6.15 µM; in experiment [2], 47.3 µM; in experiment [3], 47.1 µM; in [4], above 100 µM; in experiment [5] it was 30.6 µM; in [6], 28 µM. The TGI is 9.94 µM in [7], 40.9 µM in experiment [8], 16.9 µM in experiment [9] and 24.1 µM in experiment [10].

Regarding `C1=Cc2ccccc2Nc2ccccc21`, the GI50 in [1] was above 100 µM; in experiment [2], 86.1 µM; in experiment [3], above 100 µM; in experiment [4], above 100 µM; in [5] it was above 100 µM; in experiment [6], above 100 µM. Besides, the GI50 in experiment [7], in experiment [8], in experiment [9] and in experiment [10] was above 100 µM each time. In addition, the TGI in [1], in [2], in experiment [3], in experiment [4], in experiment [5] and in experiment [6] was above 100 µM in each case. Further, the TGI in [7], in experiment [8], in [9] and in experiment [10] was above 100 µM throughout.

As for `CCOc1c(Br)cc(C2C(C(=O)OC)=CN(C)C=C2C(=O)OC)cc1OC`, the GI50 in [1] was 99.2 µM; in [2], 33.4 µM; in experiment [3], 72.3 µM; in experiment [4] it was 30 µM; in experiment [5], 58.1 µM; in experiment [6] it was 37.8 µM. The GI50 in [7] is 50.4 µM; in [8], 68.1 µM; in experiment [9], 40.5 µM; in experiment [10], above 100 µM. In addition, the TGI in [1], in experiment [2], in experiment [3], in experiment [4], in experiment [5] and in [6] was above 100 µM in each case. Besides, the TGI in experiment [7], in experiment [8], in [9] and in experiment [10] was above 100 µM throughout.

Take `O=c1c2cccc(Cl)c2sc2c(NCCCNCCO)nc3ccccc3c12`: the GI50 in experiment [1] is 1.9 µM; in experiment [2], 1.26 µM; in [3], 10.4 µM; in [4], 3.45 µM; in experiment [5], 1.01 µM; in experiment [6], 2.4 µM. The GI50 in experiment [7] is 2.95 µM; in [8], 2.91 µM; in experiment [9], 6.5 µM; in [10], 1.62 µM. The TGI in experiment [1] is 4.39 µM; in experiment [2], 7.82 µM; in experiment [3], 28 µM; in experiment [4] it was 15.5 µM; in experiment [5], 2.32 µM; in [6] it was 5.49 µM. For the same molecule, the TGI in experiment [7] stood at 14.8 µM; in experiment [8], 11.9 µM; in experiment [9], 21 µM; in [10], 3.02 µM.
